Assay results from patent US6969711B2, “Cyclic diamine compounds and medicine containing the same” (Kowa Company, Ltd., priority 1997, dated 2005).

| Compound | melting point |
| --- | --- |
| CC(C)c1cc(C(C)C)c(NC(=O)CN2CCN(CCSc3nc4ccccc4[nH]3)CC2)c(C(C)C)c1 [Example 49, 2-[4-[2-(benzimidazol-2-ylthio)ethyl]piperazin-1-yl]-N-(2,4,6-triisopropylphenyl)acetamide] | 217 to 218 °C |
| CC(C)c1cc(OC(=O)[C@H](C)N)cc(C(C)C)c1NC(=O)CN1CCN(CCSc2nc3ccccc3o2)CC1.O=C(O)C(F)(F)F.O=C(O)C(F)(F)F.O=C(O)C(F)(F)F | 183 to 184 °C |
| CCSc1cc(C)nc(SCC)c1NC(=O)CN1CCN(CCSc2nc3cccc(C(=O)OC)c3o2)CC1 [Example 35, 2-[4-[2-(7-methoxycarbonylbenzoxazol-2-ylthio)ethyl]piperazin-1-yl]-N-[2,4-bis(ethylthio)-6methyl-3-pyridyl)acetamide] | 118 to 119 °C |
| COc1cc(C(C)C)c(NC(=O)CN2CCN(CCSc3nc4cccc([N+](=O)[O-])c4o3)CC2)c(C(C)C)c1 [Example 105, 2-[4-[2-(7-nitrobenzoxazol-2-ylthio)ethyl]-piperazin-1-yl]-N-(2,6-diisopropyl-4-methoxyphenyl)acetamide] | 165 to 166 °C |
| CC(C)c1cccc(C(C)C)c1NC(=O)CN1CCN(CCOc2nc3ccccc3[nH]2)CC1 [Example 154, 2-[4-[2-(benzimidazol-2-yloxy)ethyl]piperazin-1-yl]-N-(2,6-diisopropylphenyl)acetamide] | 205 to 206 °C |
| CCCCCCCN(CCN1CCN(CCSc2nc3c(C)c(Cl)cc(C(C)C)c3o2)CC1)C(=O)Nc1c(C(C)C)cc(O)cc1C(C)C [Example 116, N-[2-[4-[2-(5-chloro-7-isopropyl-4-methylbenzoxazol-2-ylthio)ethyl]piperazin-1-yl]ethyl]-N′-(2,6-diisopropyl-4-hydroxyphenyl)-N-heptylurea] | 138 to 140 °C |
| CCCCCCCN(CCN1CCN(CCSc2nc3ccccc3o2)CC1)C(=O)Nc1c(SCC)cc(C)nc1SCC.Cl.Cl | 124 to 127 °C |
| CC(C)c1cccc(C(C)C)c1NC(=O)CN1CCN(CCCSc2nc3ncccc3o2)CC1 [Example 12, 2-[4-[3-(oxazolo[4,5-b]pyridine-2-ylthio)propyl]piperazin-1-yl]-N-(2,6-diisopropylphenyl)acetamide] | 125 to 127 °C |
| CC(C)c1cccc(C(C)C)c1NC(=O)CN1CCN(CCSc2nc3cccc(C(C)(C)C)c3o2)CC1 [Example 95, 2-[4-[2-(7-tert-butylbenzoxazol-2-ylthio)ethyl]piperazin-1-yl]-N-(2,6-diisopropylphenyl)acetamide] | 138 to 140 °C |
| COC(=O)c1cccc2oc(SCCCN3CCN(CC(=O)Nc4c(C(C)C)cccc4C(C)C)CC3)nc12 [Example 11, 2-[4-[3-(4-methoxycarbonylbenzoxazol-2-ylthio)propyl]piperazin-1-yl]-N-(2,6-diisopropylphenyl)acetamide] | 132 to 133 °C |
| CCOP(=O)(OCC)Oc1cc(C(C)C)c(NC(=O)CN2CCN(CCSc3nc4ccccc4o3)CC2)c(C(C)C)c1 | 108 to 109 °C |
| CCCCCCCN(CCN1CCN(CCSc2nc3ncccc3o2)CC1)C(=O)Nc1c(C(C)C)cc(O)cc1C(C)C [Example 139, N′-(2,6-diisopropyl-4-hydroxyphenyl)-N-heptyl-N-[2-[4-[2-(oxazolo[4,5-b]pyridin-2-ylthio)ethyl]piperazin-1-yl]ethyl]urea] | 100 to 102 °C |
| COC(=O)c1cccc2nc(SCCN3CCN(CC(=O)Nc4c(SC(C)C)cc(C)nc4SC(C)C)CC3)oc12 [Example 39, N-[2,4-bis(isopropylthio)-6-methyl-3-pyridyl]-2-[4-[2-(7-methoxycarbonylbenzoxazol-2-ylthio)ethyl]piperazin-1-yl]acetamide] | 60 to 63 °C |
| Cc1cc(SC(C)C)c(NC(=O)CN2CCN(CCSc3nc4cccc([N+](=O)[O-])c4o3)CC2)c(SC(C)C)n1 [Example 107, 2-[4-[2-(7-nitrobenzoxazol-2-ylthio)ethyl]-piperazin-1-yl]-N-[2,4-bis(isopropylthio)-6-methyl-3-pyridyl]acetamide] | 57 to 59 °C |
| CC(C)c1cc(C(C)C)c(NC(=O)CN2CCN(CCCSc3nc4ccccc4s3)CC2)c(C(C)C)c1 [Example 55, 2-[4-[3-(benzothiazol-2-ylthio)propyl]piperazin-1-yl]-N-(2,4,6-triisopropylphenyl)acetamide] | 107 to 108 °C |
| CC(C)c1cccc(C(C)C)c1NC(=O)NCCN1CCN(CCSc2nc3ccccc3s2)CC1 [Example 81, N-[2-[4-[2-(benzothiazole-2-ylthio)ethyl]piperazin-1-yl]ethyl]-N′-(2,6-diisopropylphenyl)urea] | 147 to 149 °C |
| COC(=O)c1cccc2nc(SCCCN3CCN(CC(=O)Nc4c(SC)cc(C)nc4SC)CC3)oc12 [Example 30, N-[2,4-bis(methylthio)-6-methyl-3pyridyl)-2-[4-[3-(7-methoxycarbonylbenzoxazol-2-ylthio)propyl]piperazin-1-yl]acetamide] | 76 to 79 °C |

Results, then the compound that gave them:

| melting point | Compound |
| --- | --- |
| 115 to 117 °C | CC(C)c1cc(OS(C)(=O)=O)cc(C(C)C)c1NC(=O)CN1CCN(CCSc2nc3ccccc3o2)CC1 [Example 74, 2-[4-[2-(benzoxazol-2-ylthio)ethyl]piperazin-1-yl]-N-(2,6-diisopropyl-4-mesyloxyphenyl)acetamide] |
| 96 to 98 °C | CC(C)c1ccc(O)c(C(C)C)c1NC(=O)CN1CCN(CCSc2nc3ccccc3o2)CC1 [Example 61, 2-[4-[2-(benzoxazol-2-ylthio)ethyl]piperazin-1-yl]-N-(2,6-diisopropyl-3-hydroxyphenyl)acetamide] |
| 156 to 158 °C | CC(C)c1ccc([N+](=O)[O-])c(C(C)C)c1NC(=O)CN1CCN(CCCSc2nc3ccccc3o2)CC1 [Example 67, 2-[4-[3-(benzoxazol-2-ylthio)propyl]piperazin-1-yl]-N-(2,6-diisopropyl-3-nitrophenyl)acetamide] |
| 143 to 145 °C | CC(C)c1ccc([N+](=O)[O-])c(C(C)C)c1NC(=O)CN1CCN(CCSc2nc3ccccc3o2)CC1 [Example 58, 2-[4-[2-(benzoxazol-2-ylthio)ethyl]piperazin-1-yl]-N-(2,6-diisopropyl-3-nitrophenyl)acetamide] |
| 142 to 144 °C | CC(C)c1ccc(F)c(C(C)C)c1NC(=O)CN1CCN(CCSc2nc3ccccc3o2)CC1 [Example 155, 2-[4-[2-(benzoxazol-2-ylthio)ethyl]piperazin-1-yl]-N-(2,6-diisopropyl-3-fluorophenyl)acetamide] |
| 100 to 103 °C | CCOCCOc1ccc(C(C)C)c(NC(=O)CN2CCN(CCSc3nc4ccccc4o3)CC2)c1C(C)C [Example 65, 2-[4-[2-(benzoxazol-2-ylthio)ethyl]piperazin-1-yl]-N-[2,6-diisopropyl-3-(2-ethoxyethyloxy)phenyl)acetamide] |
| 138 to 139 °C | CC(C)c1cccc(C(C)C)c1NC(=O)CN1CCN(CCSc2nc3cccc(CO)c3o2)CC1 [Example 102, 2-[4-[2-(7-hydroxymethylbenzoxazol-2-ylthio]ethyl]piperazin-1-yl]-N-(2,6-diisopropylphenyl)acetamide] |
| 82 to 84 °C | CC(C)c1ccc(O)c(C(C)C)c1NC(=O)CN1CCN(CCSc2nc3cccc(C(F)(F)F)c3o2)CC1 [Example 130, 2-[4-[2-(7-trifluoromethylbenzoxazol-2-ylthio)ethyl]piperazin-1-yl]-N-(2,6-diisopropyl-3-hydroxyphenyl)acetamide] |
